Test [1] relates to Salm.typhm. 58D009. The test can be described thus: in vitro minimum inhibitory concentration (MIC) method of Ericsson and Sherris. It counts as cell-based. As to conditions: Salm.typhm. 58D009, Gram-negative. The source says:
(§1) The oleandomycin compounds of the present invention are effective in inhibiting the growth of microorganisms, especially Gram-positive microorganisms. That is, the high activity against Gram-positive organisms in general shown by these compounds can be contrasted in some respects with the lower activity show against certain especially virulent and well known Gram-negative organisms. The following table illustrates the in vitro antibiotic spectrum of the compound of the instant invention. The tests were run according to the "minimum inhibitory concentration" (MIC) method of Ericsson and Sherris [H. M. Ericsson and J. C. Sherris, Acta. Pathol. Microbiol. Scand. Suppl., 217B, 64 (1971)].

Test [2] relates to E.coli 51A226. The description is as above. It counts as cell-based. The following applies: Escherichia coli; E.coli 51A226, Gram-negative.
Source text: as §1

The subject of test [3] is Neisseriae Sicca 66C001. The test is described as above. It counts as cell-based. The following applies: Neisseriae Sicca 66C001, Gram-negative.
Source text: as §1

For test [4], the system named is Strep.py 02C203. Described as above. It counts as cell-based. As to conditions: Strep.py 02C203, Gram-positive.
Source text: as §1

In test [5] the test system is Klebsiella pn. 53A009. Described as above. It counts as cell-based. As to conditions: Klebsiella pn. 53A009, Gram-negative.
Source text: as §1

Test [6] deals with Staph.aureus 01A400R. The test is described as above. As to conditions: Staphylococcus aureus, Gram-positive. It counts as cell-based.
Source text: as §1

Test [7] has as its system Staph.aureus 01A005. The description is as above. The test is classed as cell-based. The following applies: Staphylococcus aureus; Staph.aureus 01A005, Gram-positive.
Source text: as §1

Test [8] deals with Staph. aureus 01A005. In words: protection against in vivo infection in mice infected with Staph. aureus 01A005 (test procedure of Retsema). The following applies: subcutaneous or oral administration to mice infected with Staph. aureus 01A005; compared with natural oleandomycin. On the procedure: The ability of some compounds of the present invention to protect against in vivo infections was determined by subcutaneous or oral administration to mice infected with Staph. aureus 01A005. Using the test procedure of Retsema [J. A. Retsema, et al., Antimicr.

Converted amounts (≈) assume the structure as drawn.

As a reminder, the MIC is the least concentration at which growth counts as inhibited. Low values mean a more susceptible organism, high ones a less susceptible organism. As to `CO[C@H]1C[C@H](O[C@H]2[C@H](C)[C@@H](O[C@@H]3O[C@H](C)C[C@H](N(C)C)[C@H]3O)[C@@H](C)C[C@@H](CN=[N+]=[N-])C(=O)[C@H](C)[C@@H](O)[C@@H](C)[C@@H](C)OC(=O)[C@@H]2C)O[C@@H](C)[C@@H]1OC(C)=O` [Example 9, 8,8a-Deoxy8-azidomethyl-4"-acetyloleandomycin], the MIC in test [1] is greater than 200 µg/mL; in test [2], greater than 200 µg/mL; in test [3] it was 0.2 µg/mL (≈ 0.264 µM); in test [4] it was 3.1 µg/mL (≈ 4.1 µM); in test [5], greater than 200 µg/mL; in test [6] it was 12.5 µg/mL (≈ 16.5 µM). Also, the lowest concentration to inhibit growth in test [7] (MIC) was 3.1 µg/mL (≈ 4.1 µM). Besides, in test [8], the protection against infection result is recorded as “protection against infection which was comparable to natural oleandomycin”.

Take `CO[C@H]1C[C@H](O[C@H]2[C@H](C)[C@@H](O[C@@H]3O[C@H](C)C[C@H](N(C)C)[C@H]3OC(C)=O)[C@@H](C)C[C@@H](COS(=O)(=O)c3ccc(C)cc3)C(=O)[C@H](C)[C@@H](O)[C@@H](C)[C@@H](C)OC(=O)[C@@H]2C)O[C@@H](C)[C@@H]1O` [Example 5, 8,8a-Deoxy-8-tosyloxymethyl-2'-acetyloleandomycin]: the MIC in test [1] was greater than 200 µg/mL; in test [2], greater than 200 µg/mL; in test [3], 3.12 µg/mL (≈ 3.52 µM); in test [4], 3.12 µg/mL (≈ 3.52 µM); in test [5], greater than 200 µg/mL; in test [6], greater than 200 µg/mL. Further, in test [7], the MIC came to 100 µg/mL (≈ 113 µM).

On to `CO[C@H]1C[C@H](O[C@H]2[C@H](C)[C@@H](O[C@@H]3O[C@H](C)C[C@H](N(C)C)[C@H]3O)[C@@H](C)C[C@@H](CN)C(=O)[C@H](C)[C@@H](O)[C@@H](C)[C@@H](C)OC(=O)[C@@H]2C)O[C@@H](C)[C@@H]1OC(C)=O` [Example 11, 8,8a-Deoxy-8-aminomethyl-4"-acetyloleandomycin], for which the MIC is greater than 200 µg/mL in test [1]; greater than 200 µg/mL in test [2]; no more than 0.1 µg/mL in test [3]; 50 µg/mL (≈ 68.4 µM) in test [4]; greater than 200 µg/mL in test [5]; 25 µg/mL (≈ 34.2 µM) in test [6]. In addition, in test [7], it took 6.25 µg/mL (≈ 8.55 µM) to inhibit growth (MIC).

In the case of `CO[C@H]1C[C@H](O[C@H]2[C@H](C)[C@@H](O[C@@H]3O[C@H](C)C[C@H](N(C)C)[C@H]3O)[C@@H](C)C[C@@H](CCl)C(=O)[C@H](C)[C@@H](O)[C@@H](C)[C@@H](C)OC(=O)[C@@H]2C)O[C@@H](C)[C@@H]1OC(C)=O` [Example 13, 8,8a-Deoxy-8-chloromethyl-4'-acetyloleandomycin], the MIC is greater than 200 µg/mL in test [1]; 200 µg/mL (≈ 267 µM) in test [2]; no more than 0.1 µg/mL in test [3]; 1.56 µg/mL (≈ 2.08 µM) in test [4]; greater than 200 µg/mL in test [5]; 50 µg/mL (≈ 66.6 µM) in test [6]. The MIC in test [7] stood at 3.12 µg/mL (≈ 4.16 µM). In test [8], the protection against infection entry was “protection against infection which was comparable to natural oleandomycin”.

Turning to `CO[C@H]1C[C@H](O[C@H]2[C@H](C)[C@@H](O[C@@H]3O[C@H](C)C[C@H](N(C)C)[C@H]3O)[C@@H](C)C[C@@H](CNC(C)=O)C(=O)[C@H](C)[C@@H](O)[C@@H](C)[C@@H](C)OC(=O)[C@@H]2C)O[C@@H](C)[C@@H]1OC(C)=O` [Example 19, 8,8a-Deoxy-8-(N-acetyl)aminomethyl-4"-acetyloleandomycin], in test [8], the protection against infection entry was “protection against infection which was comparable to natural oleandomycin”.

Turning to `CO[C@H]1C[C@H](O[C@H]2[C@H](C)[C@@H](O[C@@H]3O[C@H](C)C[C@H](N(C)C)[C@H]3O)[C@@H](C)C[C@@H](Cn3ccnc3)C(=O)[C@H](C)[C@@H](O)[C@@H](C)[C@@H](C)OC(=O)[C@@H]2C)O[C@@H](C)[C@@H]1OC(C)=O` [Example 24, 8,8a-deoxy-8-(imidazol-1-yl)methyl-4"-acetyloleandomycin], the MIC was greater than 200 µg/mL in test [1]; greater than 200 µg/mL in test [2]; no more than 0.1 µg/mL in test [3]; greater than 200 µg/mL in test [5]; 6.25 µg/mL (≈ 7.99 µM) in test [6]; 0.39 µg/mL (≈ 0.499 µM) in test [7]. For the same compound, in test [8], the protection against infection entry was “protection against infection which was comparable to natural oleandomycin”.

As to `CO[C@H]1C[C@H](O[C@H]2[C@H](C)[C@@H](O[C@@H]3O[C@H](C)C[C@H](N(C)C)[C@H]3OC(C)=O)[C@@H](C)C[C@@H](CO)C(=O)[C@H](C)[C@@H](O)[C@@H](C)[C@@H](C)OC(=O)[C@@H]2C)O[C@@H](C)[C@@H]1O` [Example 2, 8,8a-Deoxy-8-hydroxymethyl-2'-acetyloleandomycin], the MIC in test [1] was greater than 200 µg/mL; in test [2], greater than 200 µg/mL; in test [3] it was 0.39 µg/mL (≈ 0.533 µM); in test [4], 1.56 µg/mL (≈ 2.13 µM); in test [5], greater than 200 µg/mL; in test [6] it was 12.5 µg/mL (≈ 17.1 µM). Also, inhibition of growth in test [7] (MIC) required 6.25 µg/mL (≈ 8.54 µM). In test [8], the protection against infection entry is “protection against infection which was comparable to natural oleandomycin”.

In the case of `CO[C@H]1C[C@H](O[C@H]2[C@H](C)[C@@H](O[C@@H]3O[C@H](C)C[C@H](N(C)C)[C@H]3O)[C@@H](C)C[C@@H](CN(C)C)C(=O)[C@H](C)[C@@H](O)[C@@H](C)[C@@H](C)OC(=O)[C@@H]2C)O[C@@H](C)[C@@H]1OC(C)=O` [Example 14, 8,8a-Deoxy-8-dimethylaminomethyl-4"-acetyloleandomycin], the MIC in test [1] is greater than 200 µg/mL; in test [2] it was greater than 200 µg/mL; in test [3], 1.56 µg/mL (≈ 2.06 µM); in test [4], 50 µg/mL (≈ 65.9 µM); in test [5] it was greater than 200 µg/mL; in test [6], 50 µg/mL (≈ 65.9 µM). The compound also had an MIC in test [7] of 25 µg/mL (≈ 32.9 µM).

(Values after US4178436A, “Semi-synthetic oleandomycin derivatives-C8 modifications” (Pfizer Inc., priority 1978, dated 1979).)
